Results on six molecules are retold here after US12403118B1, “Cancer treatments using modified fatty acids and the carriers to administer them” (Zetagen Therapeutics, Inc., priority 2025, dated 2025).

One series addresses TRPA1 channels (Homo sapiens, UniProt O75762). Conditions: 20-μM Ca^2+; cited from earlier work.
Series [1] can be described thus: Solubility in heated non-polar solvents and fatty acid solutions. The series is classed as physicochemical. Conditions: heated to at least 90° C.; for solubility in fatty acid solutions: oleic acid, linoleic acid, vegetable oil, olive oil, canola oil, castor oil; for solubility in non-polar solvents: toluene, xylene, n-octane, cyclohexane, hexane, chloroform, acetonitrile, ether.

The next series concerns MCF7 breast cancer cells. The experiment in a line: MTT assay of cell proliferation. The settings on record: relative to no treatment. It counts as cell-based. How it is done: The MTT Assay of Cell Proliferation: The MTT assay provides a measurement of cell proliferation (FIG. 5) in the MCF7 breast cancer cells. […] Experiments were conducted using three independent replicates and evaluated using a 1-way ANOVA. Relative to Controls at 24-hours (FIG. 5A), there was between a 6.9% and 11.94% decrease in cell number (**=p<0.0034, ***=p<0.0007, and ****=p<0.0001). Relative to Control cultures at 72-hours (FIG. 5B), there was between a 15.4% and 50.2% decrease in cell number (****=p<0.0001).
Combination Therapy Assessed Using the MTT Assay of Cell Proliferation: The MTT assay provides a measurement of cell proliferation (FIG. 5) in the MCF7 breast cancer cells. […] Control cultures were treated with 50-nM of Tomoxifen or 10-nM of Abemaciclib.
On the technique in general: Tetrazolium dyes change colour on reduction, which living cells bring about.

Another series relates to Phosphoglycerate kinase. Conditions: substrate Mg-ATP; cited from earlier work.

Sequence of TRPA1 channels (O75762 whole entry): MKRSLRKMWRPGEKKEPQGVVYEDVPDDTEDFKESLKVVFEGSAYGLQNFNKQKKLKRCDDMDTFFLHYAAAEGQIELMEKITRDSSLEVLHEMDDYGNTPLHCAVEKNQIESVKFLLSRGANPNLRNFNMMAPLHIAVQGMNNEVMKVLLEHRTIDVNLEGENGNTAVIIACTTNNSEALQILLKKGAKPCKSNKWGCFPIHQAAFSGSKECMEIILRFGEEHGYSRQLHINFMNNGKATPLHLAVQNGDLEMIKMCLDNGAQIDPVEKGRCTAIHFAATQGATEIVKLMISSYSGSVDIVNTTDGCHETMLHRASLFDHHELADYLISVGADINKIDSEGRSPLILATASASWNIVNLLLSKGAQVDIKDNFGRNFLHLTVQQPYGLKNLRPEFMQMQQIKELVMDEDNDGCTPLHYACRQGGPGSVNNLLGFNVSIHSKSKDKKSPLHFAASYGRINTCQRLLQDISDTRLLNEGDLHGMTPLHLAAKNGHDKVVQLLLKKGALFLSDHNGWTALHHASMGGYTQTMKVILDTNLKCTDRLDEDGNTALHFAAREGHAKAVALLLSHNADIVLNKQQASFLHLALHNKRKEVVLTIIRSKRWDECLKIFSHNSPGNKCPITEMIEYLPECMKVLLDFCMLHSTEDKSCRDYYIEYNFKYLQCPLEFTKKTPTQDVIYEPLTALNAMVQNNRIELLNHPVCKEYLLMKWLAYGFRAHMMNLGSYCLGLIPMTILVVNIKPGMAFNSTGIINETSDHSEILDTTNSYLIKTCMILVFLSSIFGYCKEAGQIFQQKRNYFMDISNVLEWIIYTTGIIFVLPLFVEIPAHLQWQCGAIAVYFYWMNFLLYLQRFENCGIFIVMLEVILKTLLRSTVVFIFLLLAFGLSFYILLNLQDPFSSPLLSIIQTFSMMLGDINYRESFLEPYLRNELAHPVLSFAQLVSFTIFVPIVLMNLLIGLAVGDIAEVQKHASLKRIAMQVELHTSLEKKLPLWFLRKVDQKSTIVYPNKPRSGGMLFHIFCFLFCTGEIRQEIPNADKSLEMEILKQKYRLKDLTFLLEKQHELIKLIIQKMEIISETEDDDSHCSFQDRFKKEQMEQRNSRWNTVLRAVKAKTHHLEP

The IC50 is the midpoint of a concentration-inhibition curve. With `[La]` [lanthanum], at TRPA1 channels, the IC50 is 54 µM. With `CCCCCCCCCCCC(=O)O` [lanthanum (III) tridodeconoate], in series [1], the “solubility in fatty acid solutions” value was “soluble” and the “solubility in non-polar solvents” value was “soluble”. In the case of `CCN1CCN(Cc2ccc(Nc3ncc(F)c(-c4cc(F)c5nc(C)n(C(C)C)c5c4)n3)nc2)CC1` [Abemaciclib], the “decrease in cell number” value in the series with MCF7 breast cancer cells (MCF7, 24-hours, 10-nM Abemaciclib) is recorded as 10.2%; with MCF7 breast cancer cells (MCF7, 72-hours, 10-nM Abemaciclib), 26.4%. With `Nc1ncnc2c1ncn2[C@@H]1O[C@H](COP(=O)(O)OP(=O)([O-])OP(=O)([O-])O)[C@@H](O)[C@H]1O.[Mg+2]` [Mg-ATP], the K-value in the series with Phosphoglycerate kinase is given as 0.073 mM. As for `CCCCCCCCC(OC(C)=O)C(CCCCCCCC(=O)O)OC(C)=O` (stereo not shown) [lanthanum (III) tri 9,10-diacetoxy octadecanoate], in series [1], the “solubility in fatty acid solutions” value is “soluble” and the “solubility in non-polar solvents” value is reported as “soluble”. On to `CC/C(=C(\c1ccccc1)c1ccc(OCCN(C)C)cc1)c1ccccc1` [Tamoxifen], for which the “decrease in cell number” value came out at 54% in the series on MCF7 breast cancer cells (MCF7, 24-hours, 50-nM Tamoxifen) and 80.3% with MCF7 breast cancer cells (MCF7, 72-hours, 50-nM Tamoxifen).
